Experimental data from the supplement of paper PMC3937590.

Assays:
Assay in all cases: -log10 GI50 (growth inhibition 50%) (-log10(M)); higher = more potent growth inhibition
ZR75B = test system: ZR75B
Outline: (§1)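 The reported figure is the negative logarithm of GI50, defined as the molar concentration that produces the set level of growth inhibition. The logarithm is base 10. It comes from a Gompertz curve fitted by nonlinear least squares to 72-hour luminescence data from breast cancer cell lines given nine doses in 1:5 serial dilution, in triplicate, with a time-zero plate as reference. A < qualifier marks values equal to the top dose.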

HCC1187 = test system: HCC1187
Outline: as §1

BT20 = test system: BT20
Outline: as §1

SKBR3 = test system: SKBR3
Outline: as §1

T47D_KBluc = test system: T47D_KBluc
Outline: as §1

MX1 = test system: MX1
Outline: as §1

HCC2185 = test system: HCC2185
Outline: as §1

184B5 = test system: 184B5
Outline: as §1

SUM229PE = test system: SUM229PE
Outline: as §1

MDAMB415 = test system: MDAMB415
Outline: as §1

HCC1569 = test system: HCC1569
Outline: as §1

MDAMB157 = test system: MDAMB157
Outline: as §1

MCF10F = test system: MCF10F
Outline: as §1

HCC70 = test system: HCC70
Outline: as §1

UACC812 = test system: UACC812
Outline: as §1

HCC1143 = test system: HCC1143
Outline: as §1

SUM225CWN = test system: SUM225CWN
Outline: as §1

BT549 = test system: BT549
Outline: as §1

MDAMB453 = test system: MDAMB453
Outline: as §1

SUM159PT = test system: SUM159PT
Outline: as §1

CAMA1 = test system: CAMA1
Outline: as §1

BT483 = test system: BT483
Outline: as §1

SUM185PE = test system: SUM185PE
Outline: as §1

T47D = test system: T47D
Outline: as §1

600MPE = test system: 600MPE
Outline: as §1

HCC1419 = test system: HCC1419
Outline: as §1

AU565 = test system: AU565
Outline: as §1

SUM1315MO2 = test system: SUM1315MO2
Outline: as §1

SUM149PT = test system: SUM149PT
Outline: as §1

HCC1395 = test system: HCC1395
Outline: as §1

SUM52PE = test system: SUM52PE
Outline: as §1

HCC38 = test system: HCC38
Outline: as §1

HCC3153 = test system: HCC3153
Outline: as §1

ZR751 = test system: ZR751
Outline: as §1

HCC1937 = test system: HCC1937
Outline: as §1

MDAMB134VI = test system: MDAMB134VI
Outline: as §1

MCF12A = test system: MCF12A
Outline: as §1

MCF10A = test system: MCF10A
Outline: as §1

MDAMB175VII = test system: MDAMB175VII
Outline: as §1

BT474 = test system: BT474
Outline: as §1

MDAMB361 = test system: MDAMB361
Outline: as §1

HS578T = test system: HS578T
Outline: as §1

HCC1428 = test system: HCC1428
Outline: as §1

HCC1954 = test system: HCC1954
Outline: as §1

184A1 = test system: 184A1
Outline: as §1

MCF7 = test system: MCF7
Outline: as §1

LY2 = test system: LY2
Outline: as §1

MDAMB231 = test system: MDAMB231
Outline: as §1

HCC1806 = test system: HCC1806
Outline: as §1

HCC202 = test system: HCC202
Outline: as §1

Nc1[nH]nc2nnc(-c3c(-c4ccccc4)nn4ccccc34)cc12
-log10 GI50 (ZR75B): 4.56
-log10 GI50 (HCC1187): 4.7
-log10 GI50 (BT20): 4.55
-log10 GI50 (SKBR3): < 4
-log10 GI50 (T47D_KBluc): < 4
-log10 GI50 (MX1): < 4.48
-log10 GI50 (HCC2185): < 4
-log10 GI50 (184B5): 4.89
-log10 GI50 (SUM229PE): < 4.48
-log10 GI50 (MDAMB415): < 4
-log10 GI50 (HCC1569): < 4
-log10 GI50 (MDAMB157): < 4
-log10 GI50 (MCF10F): 4.09
-log10 GI50 (HCC70): 4.54
-log10 GI50 (UACC812): 4.56
-log10 GI50 (HCC1143): 4.6
-log10 GI50 (SUM225CWN): 4.62
-log10 GI50 (BT549): < 4
-log10 GI50 (MDAMB453): < 4
-log10 GI50 (SUM159PT): < 4.48
-log10 GI50 (CAMA1): < 4
-log10 GI50 (BT483): 4.45
-log10 GI50 (SUM185PE): 4.43
-log10 GI50 (T47D): < 4.48
-log10 GI50 (600MPE): 4.65
-log10 GI50 (HCC1419): 4.88
-log10 GI50 (AU565): < 4.48
-log10 GI50 (SUM1315MO2): 4.71
-log10 GI50 (SUM149PT): 4.73
-log10 GI50 (HCC1395): 4.56
-log10 GI50 (SUM52PE): 4.49
-log10 GI50 (HCC38): 4.24
-log10 GI50 (HCC3153): < 4.48
-log10 GI50 (ZR751): 5.23
-log10 GI50 (HCC1937): < 4
-log10 GI50 (MDAMB134VI): < 4
-log10 GI50 (MCF12A): < 4
-log10 GI50 (MCF10A): < 4.48
-log10 GI50 (MDAMB175VII): 5.08
-log10 GI50 (BT474): 4.69
-log10 GI50 (MDAMB361): 4.67
-log10 GI50 (HS578T): < 4.48
-log10 GI50 (HCC1428): 4.56
-log10 GI50 (HCC1954): < 4.48
-log10 GI50 (184A1): 4.61
-log10 GI50 (MCF7): < 4.48

Cn1cnc2c(F)c(Nc3ccc(Br)cc3Cl)c(C(=O)NOCCO)cc21 [AZD6244]
-log10 GI50 (ZR75B): < 4.3
-log10 GI50 (HCC1187): < 4.3
-log10 GI50 (BT20): < 4.3
-log10 GI50 (SKBR3): < 4.3
-log10 GI50 (LY2): < 4.3
-log10 GI50 (T47D_KBluc): < 4.3
-log10 GI50 (MX1): 6.34
-log10 GI50 (HCC2185): < 4.3
-log10 GI50 (184B5): 6.9
-log10 GI50 (SUM229PE): 7.13
-log10 GI50 (MDAMB415): 4.96
-log10 GI50 (HCC1569): < 4.3
-log10 GI50 (MDAMB157): < 4.3
-log10 GI50 (MCF10F): 5.62
-log10 GI50 (HCC70): 5.75
-log10 GI50 (UACC812): < 4.3
-log10 GI50 (HCC1143): < 4.3
-log10 GI50 (SUM225CWN): < 4.3
-log10 GI50 (BT549): < 4.3
-log10 GI50 (MDAMB453): < 4.3
-log10 GI50 (SUM159PT): 6.66
-log10 GI50 (CAMA1): < 4.3
-log10 GI50 (BT483): < 4.3
-log10 GI50 (SUM185PE): < 4.3
-log10 GI50 (T47D): < 4.3
-log10 GI50 (600MPE): 6.24
-log10 GI50 (HCC1419): 4.75
-log10 GI50 (AU565): < 4.3
-log10 GI50 (SUM1315MO2): 5.57
-log10 GI50 (SUM149PT): 6.32
-log10 GI50 (HCC1395): 4.42
-log10 GI50 (SUM52PE): 5.01
-log10 GI50 (HCC38): < 4.3
-log10 GI50 (MDAMB231): < 4.3
-log10 GI50 (HCC3153): < 4.3
-log10 GI50 (ZR751): 4.75
-log10 GI50 (HCC1937): < 4.3
-log10 GI50 (HCC1806): < 4.3
-log10 GI50 (MDAMB134VI): 6.2
-log10 GI50 (MCF12A): 6.69
-log10 GI50 (MCF10A): 6.71
-log10 GI50 (MDAMB175VII): 5.59
-log10 GI50 (BT474): < 4.3
-log10 GI50 (MDAMB361): < 4.3
-log10 GI50 (HS578T): 4.75
-log10 GI50 (HCC1428): < 4.3
-log10 GI50 (HCC1954): 5.84
-log10 GI50 (184A1): 6.5
-log10 GI50 (MCF7): < 4.3

O=c1cc(-c2ccccc2)oc2cc(O)c(O)c(O)c12 [Baicalein]
-log10 GI50 (ZR75B): 4.36
-log10 GI50 (HCC1187): 4.94
-log10 GI50 (BT20): 4.05
-log10 GI50 (SKBR3): 3.96
-log10 GI50 (LY2): 4.19
-log10 GI50 (T47D_KBluc): 4
-log10 GI50 (MX1): 4.66
-log10 GI50 (HCC2185): 4.3
-log10 GI50 (184B5): < 3.78
-log10 GI50 (SUM229PE): 4.08
-log10 GI50 (MDAMB415): < 3.78
-log10 GI50 (HCC1569): 4.33
-log10 GI50 (MDAMB157): 4.28
-log10 GI50 (MCF10F): < 3.78
-log10 GI50 (HCC70): 4.31
-log10 GI50 (UACC812): 4.19
-log10 GI50 (HCC1143): 4.15
-log10 GI50 (SUM225CWN): 4.43
-log10 GI50 (BT549): 4.64
-log10 GI50 (MDAMB453): 3.8
-log10 GI50 (SUM159PT): 3.82
-log10 GI50 (CAMA1): 4.39
-log10 GI50 (BT483): 4.44
-log10 GI50 (T47D): 4.52
-log10 GI50 (600MPE): < 3.78
-log10 GI50 (HCC1419): 4.09
-log10 GI50 (AU565): 4.38
-log10 GI50 (SUM1315MO2): 4.55
-log10 GI50 (SUM149PT): 4.29
-log10 GI50 (HCC202): 4.41
-log10 GI50 (HCC1395): 4.73
-log10 GI50 (SUM52PE): 4.42
-log10 GI50 (HCC38): 4.52
-log10 GI50 (MDAMB231): 4.75
-log10 GI50 (HCC3153): 4.69
-log10 GI50 (ZR751): 4.38
-log10 GI50 (HCC1937): 4.46
-log10 GI50 (HCC1806): 4.73
-log10 GI50 (MDAMB134VI): 4.07
-log10 GI50 (MCF12A): 4.78
-log10 GI50 (MCF10A): 4.71
-log10 GI50 (MDAMB175VII): 3.96
-log10 GI50 (BT474): 4.3
-log10 GI50 (MDAMB361): < 3.78
-log10 GI50 (HS578T): 4.32
-log10 GI50 (HCC1428): 4.41
-log10 GI50 (HCC1954): < 3.78
-log10 GI50 (184A1): < 3.78
-log10 GI50 (MCF7): 4.3
